Data as given in US20260273074A1, “FERRITIN-TARGETING PROTACS AND METHODS OF INDUCING PYROPTOSIS” (Wisconsin Alumni Research Foundation, priority 2023, published 2026).

System: T1, ferritin (Mus musculus)
T1 construct: ferritin expression levels in B16F10 cells were evaluated; endogenous in cells; host or cells: B16F10 (murine melanoma)
Assay: Quantitative proteomics analysis of whole-cell B16F10 proteins
Type: cell-based, murine
Conditions: B16F10 cells, 0.5 μM, 12 h
Description: Quantitative proteomics analysis: Cell culture and proteomic sample preparation: B16F10 cells were seeded in T75 cell culture flasks (2×10^6 cells per well) and cultured for 24 h. […] After incubation for 12 h, cells were washed with cold PBS twice and digested with 2 mL trypsin. The cell pellets were collected in 1.5 mL Eppendorf tubes through centrifugation at 1200 rpm for 3 minutes at 4° C. As for the proteomic sample preparation, cell pellets placed on the ice were completely resuspended with a cold 100 mM ammonium bicarbonate (ABC) solution. […] Based on the quantification results, an appropriate volume of lysate supernatant containing 20 μg proteins was collected and incubated with 10 mM DL-dithiothreitol (DTT) at 37° C. for 30 min. […]
LC-MS/MS analysis: The LC separations were performed with a Waters™ Nano-Acquity UPLC System. […] Eluted peptides were analyzed on Thermo Orbitrap Q-Exactive™ MS operated in positive ion mode with nano-ESI high-resolution Q-Exactive™ analysis. […]
Data analysis: All the resulting raw files were analyzed using Proteome Discoverer software v.2.4 (Thermo Fisher Scientific), SEQUEST HT using Uniprot Mus musculus reference proteome with a decoy database added to establish control variability and false discovery rates. […]

With CCCCCCCCC=CCCCCCCCC(=O)NCCCC(=O)NC(C(=O)N1CC(O)CC1C(=O)NCc1ccc(-c2scnc2C)cc1)C(C)(C)C (centres unmarked) [DeFer-2] the “reduction of ferritin levels compared to DeFer-2epi” value (proteomics) was 44.1% and the “selectivity of ferritin degradation (global protein abundance)” value (versus DeFer-2epi) was “strong on-target effect”.
